Test results from patent US8232317B2, “Method for increasing hair growth” (E-L Management Corp., priority 2003, dated 2012).
Several values for one entry are separate records, joined by “and”; a condition that tells them apart may be missing. Equal values may be shown once.

Legend:
[1] = system: Normal Human Dermal Papilla Cells; experiment: DNA synthesis ([H]3-thymidine incorporation) in dermal papilla cells; type: cell-based; conditions: for [H] counts to denote incorporated Thymidine (relative DNA synthesis): individual replicates
Procedure: Methods: Normal Human Dermal Papilla Cells were obtained from Cell Applications Incorporated (San Diego, Calif.) which isolates the dermal papilla cells from hair plugs. Papilla cells were grown to 70% in 24 well plates. […] These treatments were carried out for 24 hours before [H]^3-Thymidine label (1 μCi/ml) was added in each well. DNA synthesis, an indicator of cell proliferation, was measured 24 hours later as a function of [H]^3-Thymidine incorporation.

[2] = system: hair plugs; experiment: Hair growth in hair plugs exposed to creatine; type: cell-based; conditions: creatine 1 mM; for Actual length of hair plugs / Hair growth normalized to length at day 0: individual plugs; for Average hair growth: n=6
Procedure: Methods: Hair plugs were obtained from East Wood Medical Hair Transplant Surgery (Garden City, N.Y.). These hair plugs were equilibrated in hair plug media as described in the literature (DMEM, 10% FBS, 1% PS, 25 mg insulin, 25 μg fungizone). These hair plugs were measured under the microscope one the first day of arrival and treated with creatine at 1 mM (n=6 for control and creatine group respectively). These hair plugs were then kept in the incubator at 37° C. in 5% CO2. On day 3, 7, & 10, re-treatments were made as well as measurements.

Structure (SMILES)	% increase compared to control (thymidine uptake / DNA synthesis) ([1]; 0.25 mM) [%]	% increase compared to control (thymidine uptake / DNA synthesis) ([1]; 0.5 mM) [%]	% increase compared to control (thymidine uptake / DNA synthesis) ([1]; 1 mM) [%]	Average thymidine uptake ([1]; 0.25 mM)	[H] counts to denote incorporated Thymidine (relative DNA synthesis) ([1]; 0.25 mM)	Average thymidine uptake ([1]; 0.5 mM)	[H] counts to denote incorporated Thymidine (relative DNA synthesis) ([1]; 0.5 mM)	Average thymidine uptake ([1]; 1 mM)	[H] counts to denote incorporated Thymidine (relative DNA synthesis) ([1]; 1 mM)	also measured
Nc1ncnc2c1ncn2[C@@H]1O[C@H](COP(=O)(O)OP(=O)(O)OP(=O)(O)O)[C@@H](O)[C@H]1O [ATP]	1411	1201	–	–	–	–	–	–	–	–
Nc1ncnc2c1ncn2[C@@H]1O[C@H](COP(=O)(O)O)[C@@H](O)[C@H]1O [AMP]	1493	1930	1449	–	–	–	–	–	–	–
O=C(O)CC(=O)C(=O)O [Oxaloacetate, oxaloacetic acid (oxaloacetate)]	22	33	38	22609.37	26907.8 counts and 21897.4 counts and 19022.9 counts	24782.97	24483.7 counts and 21467.8 counts and 28397.4 counts	25586.67	25537.3 counts and 25092.4 counts and 26130.3 counts	% increase compared to control (thymidine uptake / DNA synthesis) ([1]; 0.25 mM, listed as Oxal): 21.57%; % increase compared to control (thymidine uptake / DNA synthesis) ([1]; 0.5 mM, listed as Oxal): 33.26%; % increase compared to control (thymidine uptake / DNA synthesis) ([1]; 1 mM, listed as Oxal): 37.58%
CN(CC(=O)O)C(=N)N [Creatine, creatine]	35.66	24.78	5.697	25229.47	27441.5 counts and 24848.2 counts and 23398.7 counts	23206.37	21850.6 counts and 23029.9 counts and 24738.6 counts	19657.6	20190.6 counts and 18789.8 counts and 19992.4 counts	% increase compared to control (thymidine uptake / DNA synthesis) ([1]; 0.25 mM, listed as creatine): 36%; % increase compared to control (thymidine uptake / DNA synthesis) ([1]; 0.5 mM, listed as creatine): 25%; % increase compared to control (thymidine uptake / DNA synthesis) ([1]; 1 mM, listed as creatine): 6%; Actual length of hair plugs ([2]; Day 0 (baseline)): 3.8 mm and 6.3 mm and 8.1 mm and 8.3 mm and 8.2 mm and 7.6 mm; Average hair growth ([2]; Day 0): 0 mm; % increase compared to untreated (hair growth) ([2]; Day 3): 96.6%; Actual length of hair plugs ([2]; Day 3): 4.7 mm and 7.1 mm and 9.5 mm and 9.1 mm (2×) and 8.5 mm; Hair growth normalized to length at day 0 ([2]; Day 3): 0.9 mm (3×) and 0.8 mm (2×) and 1.4 mm; Average hair growth ([2]; Day 3): 0.95 mm; % increase compared to untreated (hair growth) ([2]; Day 7): 79.5%; Actual length of hair plugs ([2]; Day 7): 5 mm and 7 mm and 9.6 mm (2×) and 9.8 mm and 9.2 mm; Hair growth normalized to length at day 0 ([2]; Day 7): 1.2 mm and 0.7 mm and 1.5 mm and 1.3 mm and 1.6 mm (2×); Average hair growth ([2]; Day 7): 1.32 mm and 1.317 mm; % increase compared to untreated (hair growth) ([2]; Day 10): 75.5%; Actual length of hair plugs ([2]; Day 10): 5.5 mm and 7 mm and 9.7 mm (2×) and 9.8 mm and 9.2 mm; Hair growth normalized to length at day 0 ([2]; Day 10): 1.7 mm and 0.7 mm and 1.6 mm (3×) and 1.4 mm; Average hair growth ([2]; Day 10): 1.43 mm and 1.433 mm; Increase in hair growth compared to the untreated plugs ([2]; over 10 days): two fold
